The target in assay [1] is T1, WDR5 (Homo sapiens, UniProt P61964). Kind of assay: Fluorescence Polarization (FP) binding assay. Summed up:
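Displacement of fluorescein-labelled H3 (1-15) (30 nM, with 0.3 μM WDR5) or 9-Ala-FAM (20 nM, with 0.05 μM WDR5) in 80 mM sodium phosphate pH 6.5, 20 mM KCl, 0.008% Triton X-100. FP read at 485/528 nm (H3) or 480/540 nm (9-Ala-FAM); Kdisp from hyperbolic fit, mean of quadruplicates.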

Assay [2] addresses T1, WDR5. Kind of assay: Surface Plasmon Resonance (SPR) assay. It is filed as binding. On the set-up: Full length WDR5 with an N-terminal His tag and C-terminal AviTag; His tag (N); made in house; host or cells: E. coli. The following applies: read-out: SPR Kd. The essentials:
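Full-length biotinylated WDR5 (N-His, C-AviTag, E. coli) captured (~3000 RU) on streptavidin SA chip; Biacore T200. HBS-EP pH 7.4 plus 5% DMSO running buffer, 40 μl/min.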

Assay [3] deals with MV4-11 cells. Briefly: Cell proliferation assay (ATPlite). The following applies: Homo sapiens, 120 h; MV4-11 cells, five days; read-out: GI MV411 EC50. It is filed as cell-based. Summed up: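 Cells seeded at 1,000/well in Alpha-MEM with 10% FBS, treated with compound over a 10-point range (top 10 μM) or DMSO. Grown five days at 37° C, 5% CO2; viability by ATPlite luminescence.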

Drawing on US20200385371A1 (Propellon Therapeutics Inc., priority 2017, published 2020), this text covers IC50, Kd and EC50 for 17 molecules.

pEC50, pIC50, pKd: −log10 of the molar value.

Consider `C[C@@H]1CN(c2cc(F)c(-c3ccc(OC4CCOCC4)nc3)c(F)c2NC(=O)c2c[nH]c(=O)cc2C(F)(F)F)C[C@H](C)N1C` [Example 65, N-(2,4-difluoro-3-(6-((tetrahydro-2H-pyran-4-yl)oxy)pyridin-3-yl)-6-((3S,5R)-3,4,5-trimethylpiperazin-1-yl)phenyl)-6-oxo-4-(trifluoromethyl)-1,6-dihydropyridine-3-carboxamide], for which, in assay [1], the negative logarithm of the IC50 (pIC50) is 7.99. For the same molecule, the pKd in assay [2] is 8.82. For the same molecule, the pEC50 in assay [3] was 7.47.
The corresponding values for `C[C@@H]1CN(c2ncc(-c3c(F)cc(N4CCN(C)[C@@H](C)C4)c(NC(=O)c4ccc(F)cc4C(F)(F)F)c3F)cn2)C[C@H](C)O1` [Example 66, N-(3-(2-((2S,6R)-2,6-dimethylmorpholino)pyrimidin-5-yl)-6-((S)-3,4-dimethylpiperazin-1-yl)-2,4-difluorophenyl)-4-fluoro-2-(trifluoromethyl)benzamide Formic Acid] are 7.85, 8.69 and 7.34.
As to `COc1cc(N2CC=C(c3c(F)cc(N4CCN(C)[C@@H](C)C4)c(NC(=O)c4c[nH]c(=O)cc4C(F)F)c3F)CC2)ncn1` [Example 67, (S)-4-(difluoromethyl)-N-(6-(3,4-dimethylpiperazin-1-yl)-2,4-difluoro-3-(1-(6-methoxypyrimidin-4-yl)-1,2,3,6-tetrahydropyridin-4-yl)phenyl)-6-oxo-1,6-dihydropyridine-3-carboxamide], in assay [1], the pIC50 was 7.70. The pKd in assay [2] was 9.01. Also, the pEC50 in assay [3] is 7.00.
As to `COc1cc(N2CCC=C(c3c(F)cc(N4CCN(C)[C@@H](C)C4)c(NC(=O)c4c[nH]c(=O)cc4C(F)(F)F)c3F)C2)ncn1` [Example 68, (S)—N-(6-(3,4-dimethylpiperazin-1-yl)-2,4-difluoro-3-(1-(6-methoxypyrimidin-4-yl)-1,2,5,6-tetrahydropyridin-3-yl)phenyl)-6-oxo-4-(trifluoromethyl)-1,6-dihydropyridine-3-carboxamide], the pIC50 in assay [1] was 7.71. For the same molecule, the pKd in assay [2] was 8.86. Besides, in assay [3], the pEC50 is 6.45.
For `C[C@@H]1CN(c2cc(F)c(-c3ccnc(N4CCOCC4)c3)c(F)c2NC(=O)c2c[nH]c(=O)cc2C(F)(F)F)C[C@H](C)N1C` [Example 69, N-(2,4-difluoro-3-(2-morpholinopyridin-4-yl)-6-((3S,5R)-3,4,5-trimethylpiperazin-1-yl)phenyl)-6-oxo-4-(trifluoromethyl)-1,6-dihydropyridine-3-carboxamide] the same measures were 7.64, 8.52 and 6.38.
The corresponding values for `C[C@@H]1CN(c2cc(F)c(-c3cnc(N(C)C)nc3)c(F)c2NC(=O)c2c[nH]c(=O)cc2C(F)(F)F)C[C@H](C)N1C` [Example 70, N-(3-(2-(dimethylamino)pyrimidin-5-yl)-2,4-difluoro-6-((3S,5R)-3,4,5-trimethylpiperazin-1-yl)phenyl)-6-oxo-4-(trifluoromethyl)-1,6-dihydropyridine-3-carboxamide] are 7.78, 9.04 and 7.57.
The corresponding values for `C[C@@H]1CN(c2cc(F)c(-c3ccc4c(c3)OCO4)c(F)c2NC(=O)c2c[nH]c(=O)cc2C(F)(F)F)C[C@H](C)N1C` [Example 71, N-(3-(benzo[d][1,3]dioxol-5-yl)-2,4-difluoro-6-((3S,5R)-3,4,5-trimethylpiperazin-1-yl)phenyl)-6-oxo-4-(trifluoromethyl)-1,6-dihydropyridine-3-carboxamide] are 7.82, 8.78 and 7.19.
For the molecule `C[C@@H]1CN(c2cc(F)c(-c3ccc4c(c3)OCCO4)c(F)c2NC(=O)c2c[nH]c(=O)cc2C(F)(F)F)C[C@H](C)N1C` [Example 72, N-(3-(2,3-dihydrobenzo[b][1,4]dioxin-6-yl)-2,4-difluoro-6-((3S,5R)-3,4,5-trimethylpiperazin-1-yl)phenyl)-6-oxo-4-(trifluoromethyl)-1,6-dihydropyridine-3-carboxamide], the negative-log IC50 (pIC50) in assay [1] was 7.74. The pKd in assay [2] was 9.15. Moreover, the pEC50 in assay [3] is 7.00.
Take `C[C@@H]1CN(c2cc(F)c(-c3cnc4c(c3)OCCO4)c(F)c2NC(=O)c2c[nH]c(=O)cc2C(F)(F)F)C[C@H](C)N1C` [Example 73, N-(3-(2,3-dihydro-[1,4]dioxino[2,3-b]pyridin-7-yl)-2,4-difluoro-6-((3S,5R)-3,4,5-trimethylpiperazin-1-yl)phenyl)-6-oxo-4-(trifluoromethyl)-1,6-dihydropyridine-3-carboxamide]: in assay [1], the pIC50 was 7.78. In addition, the pKd in assay [2] was 8.90. Moreover, in assay [3], the pEC50 was 6.96.
Turning to `COc1cc(N2CC=C(c3c(F)cc(N4CCN(C)[C@@H](C)C4)c(NC(=O)c4c[nH]c(=O)cc4C(F)F)c3F)C2)ncn1` [Example 74, (S)-4-(difluoromethyl)-N-(6-(3,4-dimethylpiperazin-1-yl)-2,4-difluoro-3-(1-(6-methoxypyrimidin-4-yl)-2,5-dihydro-1H-pyrrol-3-yl)phenyl)-6-oxo-1,6-dihydropyridine-3-carboxamide], the pIC50 in assay [1] is 7.78. Besides, the pKd in assay [2] is 8.67. Also, in assay [3], the pEC50 is 7.44.
On to `COc1cc(N2CC=C(c3c(F)cc(N4CCN(C)[C@@H](C)C4)c(NC(=O)c4c[nH]c(=O)cc4C(F)(F)F)c3F)C2)ncn1` [Example 75, (S)—N-(6-(3,4-dimethylpiperazin-1-yl)-2,4-difluoro-3-(1-(6-methoxypyrimidin-4-yl)-2,5-dihydro-1H-pyrrol-3-yl)phenyl)-6-oxo-4-(trifluoromethyl)-1,6-dihydropyridine-3-carboxamide], for which the pIC50 in assay [1] was 7.73. For the same molecule, the pKd in assay [2] is 8.74. The pEC50 in assay [3] was 7.45.
The corresponding values for `COc1cc(N2CC=C(c3c(F)cc(N4CCN(C)[C@@H](C)C4)c(NC(=O)c4c[nH]c(=O)cc4C(F)(F)F)c3F)CC2)ncn1` [Example 76, (S)—N-(6-(3,4-dimethylpiperazin-1-yl)-2,4-difluoro-3-(1-(6-methoxypyrimidin-4-yl)-1,2,3,6-tetrahydropyridin-4-yl)phenyl)-6-oxo-4-(trifluoromethyl)-1,6-dihydropyridine-3-carboxamide] are 7.66, 8.85 and 7.38.
The corresponding values for `C[C@@H]1CN(c2nccc(-c3c(F)cc(N4C[C@@H](C)N(C)[C@@H](C)C4)c(NC(=O)c4c[nH]c(=O)cc4C(F)(F)F)c3F)n2)C[C@H](C)O1` [Example 77, N-(3-(2-((2S,6R)-2,6-dimethylmorpholino)pyrimidin-4-yl)-2,4-difluoro-6-((3S,5R)-3,4,5-trimethylpiperazin-1-yl)phenyl)-6-oxo-4-(trifluoromethyl)-1,6-dihydropyridine-3-carboxamide] are 8.00, 8.95 and 6.97.
The corresponding values for `C[C@@H]1CN(c2nccc(-c3c(F)cc(N4C[C@@H](C)N(C)[C@@H](C)C4)c(NC(=O)c4c[nH]c(=O)cc4C(F)F)c3F)n2)C[C@H](C)O1` [Example 78, 4-(Difluoromethyl)-N-(3-(2-((2S,6R)-2,6-dimethylmorpholino)pyrimidin-4-yl)-2,4-difluoro-6-((3S,5R)-3,4,5-trimethylpiperazin-1-yl)phenyl)-6-oxo-1,6-dihydropyridine-3-carboxamide] are 7.83, 8.94 and 7.19.
`COc1cc(N2CCC=C(c3c(F)cc(N4CCN(C)[C@@H](C)C4)c(NC(=O)c4c[nH]c(=O)cc4C(F)F)c3F)C2)ncn1` [Example 79, (S)-4-(difluoromethyl)-N-(6-(3,4-dimethylpiperazin-1-yl)-2,4-difluoro-3-(1-(6-methoxypyrimidin-4-yl)-1,2,5,6-tetrahydropyridin-3-yl)phenyl)-6-oxo-1,6-dihydropyridine-3-carboxamide]: the pIC50 in assay [1] is 7.87. Besides, the pKd in assay [2] was 8.78. In assay [3], the pEC50 is 6.65.
The corresponding values for `C[C@H]1CN(c2cc(F)c(C3=CCN(c4ncc(F)cn4)C3)c(F)c2NC(=O)c2c[nH]c(=O)cc2C(F)(F)F)CCN1C` [Example 80, (S)—N-(6-(3,4-dimethylpiperazin-1-yl)-2,4-difluoro-3-(1-(5-fluoropyrimidin-2-yl)-2,5-dihydro-1H-pyrrol-3-yl)phenyl)-6-oxo-4-(trifluoromethyl)-1,6-dihydropyridine-3-carboxamide] are 7.64, 8.90 and 7.23.
Consider `C[C@H]1CN(c2cc(F)c(C3=CCN(c4ncc(F)cn4)CC3)c(F)c2NC(=O)c2c[nH]c(=O)cc2C(F)F)CCN1C` [Example 81, (S)-4-(difluoromethyl)-N-(6-(3,4-dimethylpiperazin-1-yl)-2,4-difluoro-3-(1-(5-fluoropyrimidin-2-yl)-1,2,3,6-tetrahydropyridin-4-yl)phenyl)-6-oxo-1,6-dihydropyridine-3-carboxamide], for which, in assay [1], the pIC50 was 7.90. In assay [2], the pKd was 8.86. Besides, in assay [3], the pEC50 is 7.36.

What is called pIC50 is −log10 of the IC50, conventionally taken in molar units. Broadly, the pKd is the negative decadic logarithm of the Kd, by convention in mol/L. As a reminder, the pEC50 is the EC50 on a negative log10 scale, so that one unit is a factor of ten.
